20 compounds from patent US8933224B2, “Triazine derivatives” (Pfizer Inc., priority 2013, dated 2015) can be followed below.

For one assay, the target named is rat PDE10 enzyme (Rattus norvegicus (Rat), UniProt Q9QYJ6). The assay is described as follows: PDE10 scintillation proximity assay (SPA), inhibition of rat PDE10 enzyme activity. Format: biochemical. The following applies: geometric mean of 2-4 determinations unless otherwise indicated (b: ≧5 determinations; c: single determination). The method, boiled down: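 SPA with fixed recombinant PDE10 (Sf21-expressed, Ni-NTA and Mono Q purified) converting ~20% of 20 nM ³H-cAMP in 50 mM TRIS pH 7.5, 1.3 mM MgCl2, 0.01% Brij, across an inhibitor range.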
Chain of rat PDE10 enzyme (Q9QYJ6 24-794): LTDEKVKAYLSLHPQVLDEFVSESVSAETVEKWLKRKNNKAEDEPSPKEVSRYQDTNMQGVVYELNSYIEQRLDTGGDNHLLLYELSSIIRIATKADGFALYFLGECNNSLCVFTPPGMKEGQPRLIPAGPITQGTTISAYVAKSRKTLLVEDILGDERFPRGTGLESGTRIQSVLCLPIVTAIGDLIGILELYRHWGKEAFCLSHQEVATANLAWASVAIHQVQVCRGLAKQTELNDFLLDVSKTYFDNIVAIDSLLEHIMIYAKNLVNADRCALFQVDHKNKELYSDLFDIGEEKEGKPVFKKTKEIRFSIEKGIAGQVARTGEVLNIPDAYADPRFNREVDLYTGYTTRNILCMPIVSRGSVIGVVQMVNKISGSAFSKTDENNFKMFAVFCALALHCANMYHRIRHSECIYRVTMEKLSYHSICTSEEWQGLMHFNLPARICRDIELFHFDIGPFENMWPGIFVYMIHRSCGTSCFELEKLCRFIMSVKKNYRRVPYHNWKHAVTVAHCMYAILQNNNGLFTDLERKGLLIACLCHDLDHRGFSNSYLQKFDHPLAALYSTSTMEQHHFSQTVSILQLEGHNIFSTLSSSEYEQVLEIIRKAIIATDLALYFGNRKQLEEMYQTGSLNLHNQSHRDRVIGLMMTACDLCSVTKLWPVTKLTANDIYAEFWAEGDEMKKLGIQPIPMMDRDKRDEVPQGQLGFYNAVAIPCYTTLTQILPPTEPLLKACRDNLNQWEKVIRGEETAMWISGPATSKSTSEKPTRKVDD
For orientation: In a scintillation proximity assay essentially only radioactivity close to the scintillant gives light.

In assay [1] the target is human recombinant PDE10 enzyme (PDE10A) (Homo sapiens, UniProt Q9Y233). The assay can be described thus: PDE10 scintillation proximity assay (SPA), inhibition of human recombinant PDE10 enzyme activity. Format: biochemical. The following applies: geometric mean of 2-4 determinations unless otherwise indicated (b: ≧5 determinations; c: single determination). As for the experimental part:
PDE10 activity was measured using a scintillation assay (SPA-based method) similar to that previously described by Seeger, T. F. et al., Brain Research 985 (2003) 113-126. The compounds' relative activity as PDE10 inhibitors was investigated by assaying a fixed amount of enzyme in the presence of the test compound and low substrate concentration (cAMP) such that an IC50 could be determined. […] The assay is performed in a 384-well format with 50 μL assay buffer (50 mM TRIS pH 7.5; 1.3 mM MgCl2; 0.01% Brij) containing enough PDE10 to convert ˜20% of 20 nM ^3H-cAMP, and a range of inhibitors. Reactions are incubated for 30 minutes at 25° C. The addition of 20 μL of 8 mg/ml yttrium silicate SPA beads (PerkinElmer) stops the reaction. The plates are sealed (TopSeal, PerkinElmer) and the beads are allowed to settle for 8 hrs, after which they are read on the Trilux Microbeta overnight. ^1Rat enzyme preparation:^2Human enzyme preparation:
Human PDE10A coding sequence (amino acids 21 to 797 from the sequence with accession number NP_001124162.1) was synthesized using codon optimization for insect expression and cloned into the baculovirus expression vector pFastBac (Invitrogen) engineered to include a N-terminal His6 affinity tag to aid in purification as described in Seeger, T. F. et al., Brain Research 985 (2003) 113-126. The recombinant Bacmid was isolated and used to transfect sf9 insect cells to generate a viral stock. To generate cell paste for purification, sf21 cells were infected with the virus stock and cells were harvested 72 hours after infection as described in Seeger, T. F. et al., Brain Research 985 (2003) 113-126. Insect cell paste was lysed and after centrifugation, the supernatant was chromatographed on Ni-NTA agarose (Qiagen) as described in Seeger, T. F. et al., Brain Research 985 (2003) 113-126. Ni-NTA agarose eluting fractions containing PDE10A were chromatographed on Superdex 200 (GE Healthcare Life Sciences) in 50 mM Tris HCl pH 7.5, 150 mM NaCl, 1 mM EDTA, 10% glycerol, 2 mM TCEP, 1.5 mM benzamidine, EDTA-free protease inhibitors (Roche), and 5 μM E-64.

With `Cc1nc(C)c2c(n1)CCN(c1ncnn3c(C)nc([C@@H]4CCOC4)c13)C2` [Example 38, 2,4-dimethyl-6-{7-methyl-5-[(3S)-tetrahydrofuran-3-yl]imidazo[5,1-f][1,2,4]triazin-4-yl}-5,6,7,8-tetrahydropyrido[4,3-d]pyrimidine], the IC50 is 1.78 nM against rat PDE10 enzyme and 2.92 nM in assay [1].
With `Cc1nc(-c2ccccc2F)c2c(N3CCc4cnn(CC5CCC5)c4C3)ncnn12` [Example 175, 4-[1-(cyclobutylmethyl)-1,4,5,7-tetrahydro-6H-pyrazolo[3,4-c]pyridin-6-yl]-5-(2-fluorophenyl)-7-methylimidazo[5,1-f][1,2,4]triazine], the half-maximal inhibitory concentration (IC50) at rat PDE10 enzyme came out at 0.878 nM; in assay [1], 1.94 nM.
As to `Cc1ncc2c(n1)CCN(c1ncnn3c(C)nc([C@@H]4CCOC4)c13)C2` [Example 134, 2-methyl-6-{7-methyl-5-[(3S)-tetrahydrofuran-3-yl]imidazo[5,1-f][1,2,4]triazin-4-yl}-5,6,7,8-tetrahydropyrido[4,3-d]pyrimidine], the IC50 on rat PDE10 enzyme was determined as 2.44 nM; in assay [1], 4.51 nM.
The matching figures for `Cc1cc2c(cn1)CN(c1ncnn3c(C)nc([C@@H]4CCOC4)c13)CC2` [Example 163, 6-methyl-2-{7-methyl-5-[(3S)-tetrahydrofuran-3-yl]imidazo[5,1-f][1,2,4]triazin-4-yl}-1,2,3,4-tetrahydro-2,7-naphthyridine]: 1.19 nM and 1.78 nM.
Consider `Cc1nc([C@@H]2CCOC2)c2c(N3CCc4nc(C5CC5)oc4C3)ncnn12` [Example 9, 4-(2-Cyclopropyl-6,7-dihydro[1,3]oxazolo[5,4-c]pyridin-5(4H)-yl)-7-methyl-5-[(3S)-tetrahydrofuran-3-yl]imidazo[5,1-f][1,2,4]triazine], for which the half-maximal inhibitory concentration (IC50) against rat PDE10 enzyme stood at 0.892 nM; in assay [1] it was 1.14 nM.
Take `COc1cc2c(cn1)CN(c1ncnn3c(C)nc([C@@H]4CCOC4)c13)CC2` [Example 70, 6-methoxy-2-{7-methyl-5-[(3S)-tetrahydrofuran-3-yl]imidazo[5,1-f][1,2,4]triazin-4-yl}-1,2,3,4-tetrahydro-2,7-naphthyridine]: the IC50 was 1.52 nM at rat PDE10 enzyme and 1.95 nM in assay [1].
The matching figures for `Cc1ccc2c(n1)CN(c1ncnn3c(C)nc([C@@H]4CCOC4)c13)CC2` [Example 72, 2-methyl-7-{7-methyl-5-[(3S)-tetrahydrofuran-3-yl]imidazo[5,1-f][1,2,4]triazin-4-yl}-5,6,7,8-tetrahydro-1,7-naphthyridine]: 0.255 nM and 0.539 nM.
The matching figures for `Cc1nc([C@@H]2CCOC2)c2c(N3CCc4nc(C5CC5)n(C)c(=O)c4C3)ncnn12` [Example 143, 2-cyclopropyl-3-methyl-6-{7-methyl-5-[(3S)-tetrahydrofuran-3-yl]imidazo[5,1-f][1,2,4]triazin-4-yl}-5,6,7,8-tetrahydropyrido[4,3-d]pyrimidin-4(3H)-one]: 0.106 nM and 0.219 nM.
On to `Cc1nc([C@@H]2CCOC2)c2c(N3CCc4cnn(CC5CCC5)c4C3)ncnn12` [Example 174, 4-[1-(cyclobutylmethyl)-1,4,5,7-tetrahydro-6H-pyrazolo[3,4-c]pyridin-6-yl]-7-methyl-5-[(3S)-tetrahydrofuran-3-yl]imidazo[5,1-f][1,2,4]triazine], for which the IC50 against rat PDE10 enzyme was 0.359 nM; in assay [1], 0.345 nM.
The matching figures for `Cc1nc(-c2ccccc2F)c2c(N3CCc4cnn(C(C)C)c4C3)ncnn12` [Example 92, 5-(2-fluorophenyl)-7-methyl-4-[1-(propan-2-yl)-1,4,5,7-tetrahydro-6H-pyrazolo[3,4-c]pyridin-6-yl]imidazo[5,1-f][1,2,4]triazine]: 0.997 nM and 0.664 nM.
Regarding `CCOc1nc(C)nc2c1CN(c1ncnn3c(C)nc([C@@H]4CCOC4)c13)CC2` [Example 35, 4-ethoxy-2-methyl-6-{7-methyl-5-[(3S)-tetrahydrofuran-3-yl]imidazo[5,1-f][1,2,4]triazin-4-yl}-5,6,7,8-tetrahydropyrido[4,3-d]pyrimidine], the IC50 against rat PDE10 enzyme turned out to be 0.123 nM; in assay [1], 0.275 nM.
For `CCn1ncc2c1CN(c1ncnn3c(C)nc([C@@H]4CCOC4)c13)CC2` [Example 165, 4-(1-ethyl-1,4,5,7-tetrahydro-6H-pyrazolo[3,4-c]pyridin-6-yl)-7-methyl-5-[(3S)-tetrahydrofuran-3-yl]imidazo[5,1-f][1,2,4]triazine], the IC50 is 0.766 nM against rat PDE10 enzyme and 1.02 nM in assay [1].
The matching figures for `COc1ccc2c(n1)CCN(c1ncnn3c(C)nc([C@@H]4CCOC4)c13)C2` [Example 27, 2-methoxy-6-{7-methyl-5-[(3S)-tetrahydrofuran-3-yl]imidazo[5,1-f][1,2,4]triazin-4-yl}-5,6,7,8-tetrahydro-1,6-naphthyridine]: 0.617 nM and 0.891 nM.
The matching figures for `Cc1ncc2c(n1)CCN(c1ncnn3c(C)nc(-c4ccccc4F)c13)C2` [Example 111, 6-[5-(2-fluorophenyl)-7-methylimidazo[5,1-f][1,2,4]triazin-4-yl]-2-methyl-5,6,7,8-tetrahydropyrido[4,3-d]pyrimidine]: 6.85 nM and 18.6 nM.
The matching figures for `Cc1nc2c(c(C(F)(F)F)n1)CN(c1ncnn3c(C)nc([C@@H]4CCOC4)c13)CC2` [Example 88, 2-methyl-6-{7-methyl-5-[(3S)-tetrahydrofuran-3-yl]imidazo[5,1-f][1,2,4]triazin-4-yl}-4-(trifluoromethyl)-5,6,7,8-tetrahydropyrido[4,3-d]pyrimidine]: 1.56 nM and 3.64 nM.
As for `Cc1nc(-c2ccccc2F)c2c(N3CCc4nc(C5CC5)ncc4C3)ncnn12` [Example 1, 2-Cyclopropyl-6-[5-(2-fluorophenyl)-7-methylimidazo[5,1-f][1,2,4]triazin-4-yl]-5,6,7,8-tetrahydropyrido[4,3-d]pyrimidine], the IC50 was determined as 4.23 nM at rat PDE10 enzyme and 5.93 nM in assay [1].
As to `COc1ccc2c(n1)CN(c1ncnn3c(C)nc([C@@H]4CCOC4)c13)CC2` [Example 19, 2-methoxy-7-{7-methyl-5-[(3S)-tetrahydrofuran-3-yl]imidazo[5,1-f][1,2,4]triazin-4-yl}-5,6,7,8-tetrahydro-1,7-naphthyridine], the results for the IC50 (at rat PDE10 enzyme; in assay [1]) were 2.04 nM and 2.75 nM, respectively.
The matching figures for `COc1cnc2c(c1)CN(c1ncnn3c(C)nc([C@@H]4CCOC4)c13)CC2` [Example 29, 3-methoxy-6-{7-methyl-5-[(3S)-tetrahydrofuran-3-yl]imidazo[5,1-f][1,2,4]triazin-4-yl}-5,6,7,8-tetrahydro-1,6-naphthyridine]: 0.307 nM and 0.384 nM.
The matching figures for `CCc1nc(C2CC2)nc2c1CN(c1ncnn3c(C)nc([C@@H]4CCOC4)c13)CC2` [Example 137]: 0.095 nM and 0.0777 nM.
In the same order, the values of `COc1nccc2c1CN(c1ncnn3c(C)nc([C@@H]4CCOC4)c13)CC2` [Example 28, 8-methoxy-2-{7-methyl-5-[(3S)-tetrahydrofuran-3-yl]imidazo[5,1-f][1,2,4]triazin-4-yl}-1,2,3,4-tetrahydro-2,7-naphthyridine] are 0.236 nM and 0.582 nM.

The term IC50 denotes the concentration that inhibits the measured activity by half.
